The NIST ThermoML archive (doi:10.1016/j.jct.2005.08.005)

Legend:
[1] = refractive index (other wavelength) (dimensionless); settings: 101.3 kPa, Liquid, Wavelength=632.8 nm, Method described in references 3 and 4 of the article
[2] = refractive index (other wavelength) (dimensionless); xn = mol fraction of the nth substance listed; settings: 101.3 kPa, Liquid, Wavelength=632.8 nm, Method described in references 3 and 4 of the article, x2 = 0

N#Cc1ccccc1 [benzonitrile]
[1]
Settings | refractive index
294.62 K | 1.5246
296.97 K | 1.5235
299.08 K | 1.5224
301.39 K | 1.5213
303.42 K | 1.5203
305.92 K | 1.5191

CCCCCCCCCCCCCCCC [hexadecane] + N#Cc1ccccc1
[2]
Settings | refractive index
294.85 K | 1.4324
295.86 K | 1.432
296.96 K | 1.4315
297.9 K | 1.4312
299.71 K | 1.4304
301.21 K | 1.4297
302.84 K | 1.4291
304.26 K | 1.4285

CCCCCCCCCCCCCCCC [hexadecane]
[1]
Settings | refractive index
294.85 K | 1.4324
295.86 K | 1.432
296.96 K | 1.4315
297.9 K | 1.4312
299.71 K | 1.4304
301.21 K | 1.4297
302.84 K | 1.4291
304.26 K | 1.4285
